pIC50: −log10 of the molar value. Read-outs that look alike come from different tables or passages of the source.
Columns and labels:
Assay type in all cases: biochemical
PI3Kδ = biological target: T1, PI3Kδ (Homo sapiens, UniProt O00329); assay: TR-FRET enzymatic activity assay, PI3Kδ
T1 construct: made in house
Summary of the method: (§1)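 Compounds were profiled per isoform in a biochemical kinase reaction, with activity detected by time-resolved fluorescence resonance energy transfer.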

PI3Kβ = biological target: T2, PI3Kβ (Homo sapiens, UniProt P42338); assay: TR-FRET enzymatic activity assay, PI3Kβ
T2 construct: made in house
T2 sequence (P42338 whole entry): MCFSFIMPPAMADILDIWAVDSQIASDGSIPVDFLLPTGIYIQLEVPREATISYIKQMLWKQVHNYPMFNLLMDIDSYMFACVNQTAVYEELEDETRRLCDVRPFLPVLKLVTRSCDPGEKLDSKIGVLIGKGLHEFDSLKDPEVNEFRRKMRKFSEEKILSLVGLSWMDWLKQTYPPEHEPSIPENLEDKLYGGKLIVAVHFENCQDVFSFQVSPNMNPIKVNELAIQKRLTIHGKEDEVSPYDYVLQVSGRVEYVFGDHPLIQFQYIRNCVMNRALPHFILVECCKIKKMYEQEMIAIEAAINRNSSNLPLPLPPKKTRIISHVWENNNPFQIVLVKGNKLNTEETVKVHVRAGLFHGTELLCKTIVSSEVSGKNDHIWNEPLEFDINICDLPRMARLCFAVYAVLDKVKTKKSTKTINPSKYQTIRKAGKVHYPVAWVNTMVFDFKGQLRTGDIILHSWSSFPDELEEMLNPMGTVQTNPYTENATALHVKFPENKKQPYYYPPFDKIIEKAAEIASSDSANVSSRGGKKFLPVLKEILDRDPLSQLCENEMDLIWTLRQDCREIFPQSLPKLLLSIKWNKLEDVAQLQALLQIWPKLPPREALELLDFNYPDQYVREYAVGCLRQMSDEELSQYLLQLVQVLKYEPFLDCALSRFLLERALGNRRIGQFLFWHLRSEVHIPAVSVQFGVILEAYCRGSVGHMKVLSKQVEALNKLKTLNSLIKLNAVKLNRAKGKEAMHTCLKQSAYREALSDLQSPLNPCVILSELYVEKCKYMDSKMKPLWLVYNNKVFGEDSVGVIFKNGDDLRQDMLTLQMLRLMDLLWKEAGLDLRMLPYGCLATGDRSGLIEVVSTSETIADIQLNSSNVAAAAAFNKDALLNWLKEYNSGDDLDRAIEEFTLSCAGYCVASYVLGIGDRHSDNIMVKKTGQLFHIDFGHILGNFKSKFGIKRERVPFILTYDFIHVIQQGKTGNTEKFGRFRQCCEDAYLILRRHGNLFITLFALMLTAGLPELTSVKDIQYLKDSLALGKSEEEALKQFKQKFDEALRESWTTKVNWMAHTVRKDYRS
T2 sequence (P27986 whole entry partner): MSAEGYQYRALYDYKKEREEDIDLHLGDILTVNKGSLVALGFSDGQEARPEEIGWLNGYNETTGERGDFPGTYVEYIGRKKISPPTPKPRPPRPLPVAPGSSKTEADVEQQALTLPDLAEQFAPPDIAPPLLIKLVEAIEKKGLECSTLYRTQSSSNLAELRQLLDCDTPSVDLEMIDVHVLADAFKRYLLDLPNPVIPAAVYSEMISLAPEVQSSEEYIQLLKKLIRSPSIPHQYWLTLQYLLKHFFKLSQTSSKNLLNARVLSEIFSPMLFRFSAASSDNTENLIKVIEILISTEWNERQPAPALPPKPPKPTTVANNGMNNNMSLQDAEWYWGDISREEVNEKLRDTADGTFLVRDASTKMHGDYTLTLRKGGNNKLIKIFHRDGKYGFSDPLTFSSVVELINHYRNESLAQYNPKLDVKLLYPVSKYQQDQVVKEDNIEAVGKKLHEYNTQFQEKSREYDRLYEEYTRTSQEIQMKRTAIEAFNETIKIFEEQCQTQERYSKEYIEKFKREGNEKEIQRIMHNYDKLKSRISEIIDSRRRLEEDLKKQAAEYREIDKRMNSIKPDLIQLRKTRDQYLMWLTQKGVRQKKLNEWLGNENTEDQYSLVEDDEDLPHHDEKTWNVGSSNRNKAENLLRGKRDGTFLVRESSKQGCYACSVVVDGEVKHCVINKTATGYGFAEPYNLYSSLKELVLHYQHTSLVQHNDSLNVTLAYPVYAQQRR
Summary of the method: as §1

PI3Kγ = biological target: T3, PI3Kγ (Homo sapiens, UniProt P48736); assay: TR-FRET enzymatic activity assay, PI3Kγ
T3 construct: made in house
T3 sequence (P48736 whole entry): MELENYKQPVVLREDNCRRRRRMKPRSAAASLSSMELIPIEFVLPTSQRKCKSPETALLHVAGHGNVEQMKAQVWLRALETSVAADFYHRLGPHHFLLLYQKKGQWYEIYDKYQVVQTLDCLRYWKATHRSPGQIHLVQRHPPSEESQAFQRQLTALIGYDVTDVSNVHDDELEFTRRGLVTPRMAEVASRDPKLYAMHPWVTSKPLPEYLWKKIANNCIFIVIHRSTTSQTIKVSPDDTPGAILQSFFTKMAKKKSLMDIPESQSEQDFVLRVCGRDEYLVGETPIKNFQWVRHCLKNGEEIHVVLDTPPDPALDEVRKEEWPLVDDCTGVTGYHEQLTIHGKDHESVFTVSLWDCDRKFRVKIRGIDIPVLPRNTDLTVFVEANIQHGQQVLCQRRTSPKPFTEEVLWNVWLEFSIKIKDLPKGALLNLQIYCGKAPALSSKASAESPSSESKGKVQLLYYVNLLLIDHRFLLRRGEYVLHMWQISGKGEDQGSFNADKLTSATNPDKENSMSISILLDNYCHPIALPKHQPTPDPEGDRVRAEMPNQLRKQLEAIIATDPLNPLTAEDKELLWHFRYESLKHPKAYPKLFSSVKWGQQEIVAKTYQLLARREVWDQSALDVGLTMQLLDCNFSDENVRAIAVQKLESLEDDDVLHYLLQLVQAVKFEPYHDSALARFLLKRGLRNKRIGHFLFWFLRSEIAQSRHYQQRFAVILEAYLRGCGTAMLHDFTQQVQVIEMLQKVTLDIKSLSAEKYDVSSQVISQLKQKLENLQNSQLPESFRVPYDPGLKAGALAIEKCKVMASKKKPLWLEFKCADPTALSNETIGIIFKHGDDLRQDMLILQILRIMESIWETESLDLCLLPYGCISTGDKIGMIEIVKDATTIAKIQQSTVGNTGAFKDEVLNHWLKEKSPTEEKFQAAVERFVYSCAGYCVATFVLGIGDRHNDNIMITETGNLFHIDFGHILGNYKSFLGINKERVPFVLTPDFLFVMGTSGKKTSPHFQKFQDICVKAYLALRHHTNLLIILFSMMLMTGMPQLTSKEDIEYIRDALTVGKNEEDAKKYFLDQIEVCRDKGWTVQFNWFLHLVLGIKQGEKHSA
T3 sequence (Q8WYR1 whole entry partner): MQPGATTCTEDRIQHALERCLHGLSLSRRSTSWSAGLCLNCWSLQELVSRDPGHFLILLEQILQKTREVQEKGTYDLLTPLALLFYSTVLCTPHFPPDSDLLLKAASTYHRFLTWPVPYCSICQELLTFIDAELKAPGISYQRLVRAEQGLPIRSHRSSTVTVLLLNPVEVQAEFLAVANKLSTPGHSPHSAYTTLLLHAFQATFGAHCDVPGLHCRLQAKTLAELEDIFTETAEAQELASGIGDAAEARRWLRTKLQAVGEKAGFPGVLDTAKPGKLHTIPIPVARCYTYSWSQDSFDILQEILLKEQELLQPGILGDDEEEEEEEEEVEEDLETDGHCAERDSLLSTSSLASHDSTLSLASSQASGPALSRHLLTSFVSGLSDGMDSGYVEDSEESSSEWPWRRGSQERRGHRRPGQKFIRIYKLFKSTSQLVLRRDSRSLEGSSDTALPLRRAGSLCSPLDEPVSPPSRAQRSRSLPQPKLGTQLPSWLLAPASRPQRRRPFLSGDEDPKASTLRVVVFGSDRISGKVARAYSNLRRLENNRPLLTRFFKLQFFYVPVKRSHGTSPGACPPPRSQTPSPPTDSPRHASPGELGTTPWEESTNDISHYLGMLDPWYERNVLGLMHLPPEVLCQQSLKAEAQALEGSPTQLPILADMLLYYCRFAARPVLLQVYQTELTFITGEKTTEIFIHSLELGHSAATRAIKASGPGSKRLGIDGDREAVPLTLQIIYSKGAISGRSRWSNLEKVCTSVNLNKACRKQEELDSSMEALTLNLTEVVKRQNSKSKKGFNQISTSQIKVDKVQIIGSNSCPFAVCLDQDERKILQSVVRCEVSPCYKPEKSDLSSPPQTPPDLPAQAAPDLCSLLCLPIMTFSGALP
Summary of the method: as §1

[1] = recombinant heterodimeric PI3Kδ 25-50 pM, 2× Km ATP, 30 minutes at 25°C
[2] = recombinant heterodimeric PI3Kβ 25-50 pM, 2× Km ATP, 30 minutes at 25°C
[3] = recombinant heterodimeric PI3Kγ 2 nM, 2× Km ATP, 30 minutes at 25°C

T1 sequence (O00329 whole entry): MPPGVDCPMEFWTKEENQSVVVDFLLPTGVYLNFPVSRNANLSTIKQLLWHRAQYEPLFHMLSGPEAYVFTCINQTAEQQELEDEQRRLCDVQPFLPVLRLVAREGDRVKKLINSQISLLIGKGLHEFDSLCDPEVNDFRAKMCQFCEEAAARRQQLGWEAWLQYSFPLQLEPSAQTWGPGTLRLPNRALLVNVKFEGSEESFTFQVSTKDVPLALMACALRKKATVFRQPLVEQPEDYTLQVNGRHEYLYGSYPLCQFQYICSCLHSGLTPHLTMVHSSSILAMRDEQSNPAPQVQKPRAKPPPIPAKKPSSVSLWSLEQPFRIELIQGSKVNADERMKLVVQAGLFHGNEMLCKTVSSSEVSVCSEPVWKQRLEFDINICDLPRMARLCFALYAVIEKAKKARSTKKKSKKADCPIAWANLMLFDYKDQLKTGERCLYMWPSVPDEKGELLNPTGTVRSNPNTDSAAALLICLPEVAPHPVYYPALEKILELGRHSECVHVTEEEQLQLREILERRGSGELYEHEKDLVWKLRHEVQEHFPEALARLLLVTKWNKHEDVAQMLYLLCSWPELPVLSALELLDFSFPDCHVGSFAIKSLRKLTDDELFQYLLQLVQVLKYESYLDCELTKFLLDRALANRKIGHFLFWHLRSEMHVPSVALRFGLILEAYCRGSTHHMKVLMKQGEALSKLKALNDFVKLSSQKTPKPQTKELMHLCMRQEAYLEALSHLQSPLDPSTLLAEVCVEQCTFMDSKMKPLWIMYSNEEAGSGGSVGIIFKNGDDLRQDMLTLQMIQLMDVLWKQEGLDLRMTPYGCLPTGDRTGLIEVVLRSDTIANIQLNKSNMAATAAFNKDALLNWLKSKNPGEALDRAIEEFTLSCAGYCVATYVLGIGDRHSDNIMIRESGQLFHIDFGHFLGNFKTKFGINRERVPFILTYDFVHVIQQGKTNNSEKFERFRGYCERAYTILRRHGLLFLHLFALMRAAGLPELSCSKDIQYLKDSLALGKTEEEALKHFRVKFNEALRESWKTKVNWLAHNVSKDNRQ
T1 sequence (P27986 whole entry partner): as the sequence (P27986 whole entry partner) above

SMILES | pIC50 (PI3Kδ; [1]) | pIC50 (PI3Kβ; [2]) | pIC50 (PI3Kγ; [3]) | pIC50 (PI3Kδ) | pIC50 (PI3Kβ) | pIC50 (PI3Kγ)
C[C@H](Nc1nc(N)nc(N)c1C#N)c1nc2cccc(Cl)c2c(=O)n1C1CCNCC1(F)F (stereo partly drawn) [Compound 38, 2,4-diamino-6-(((1S)-1-(5-chloro-3-(3,3-difluoropiperidin-4-yl)-4-oxo-3,4-dihydroquinazolin-2-yl)ethyl)amino)pyrimidine-5-carbonitrile] | 8.22 | 6.66 | 5.82 |  |  | 
C[C@H](Nc1nc(N)nc(N)c1C#N)c1nc2cccc(Cl)c2c(=O)n1C1CCN(CC(F)F)CC1 [Compound 99, (S)-2,4-diamino-6-((1-(5-chloro-3-(1-(2,2-difluoroethyl)piperidin-4-yl)-4-oxo-3,4-dihydroquinazolin-2-yl)ethyl)amino)pyrimidine-5-carbonitrile] | 7.85 | 6.14 | 5.80 |  |  | 
CN1CCN(n2c([C@@H](Nc3nc(N)nc(N)c3Cl)C3CC3)nc3cccc(Cl)c3c2=O)CC1 [Compound 2, (S)-5-chloro-2-(cyclopropyl((2,6-diamino-5-chloropyrimidin-4-yl)amino)methyl)-3-(4-methylpiperazin-1-yl)quinazolin-4(3H)-one] | 6.59 | 6.02 | < 5.00 |  |  | 
C[C@H](NC(=O)c1nc(Cl)c(N)nc1N)c1nc2cccc(Cl)c2c(=O)n1N1CCNCC1 [Compound 33, (S)-3,5-diamino-6-chloro-N-(1-(5-chloro-4-oxo-3-(piperazin-1-yl)-3,4-dihydroquinazolin-2-yl)ethyl)pyrazine-2-carboxamide] | 7.85 | 8.40 | 5.13 |  |  | 
C[C@H](Nc1nc(N)nc(N)c1C#N)c1nc2cccc(Cl)c2c(=O)n1N1CCN(CCOC(C)(C)C)CC1 [Compound 96, (S)-2,4-diamino-6-((1-(3-(4-(2-(tert-butoxy)ethyl)piperazin-1-yl)-5-chloro-4-oxo-3,4-dihydroquinazolin-2-yl)ethyl)amino)pyrimidine-5-carbonitrile] | 7.82 | 8.00 | 6.00 |  |  | 
CC(C)N1CCN(n2c([C@H](C)Nc3nc(N)nc(N)c3C#N)nc3cccc(Cl)c3c2=O)CC1 [Compound 88, (S)-2,4-diamino-6-((1-(5-chloro-3-(4-isopropylpiperazin-1-yl)-4-oxo-3,4-dihydroquinazolin-2-yl)ethyl)amino)pyrimidine-5-carbonitrile] | 7.27 | 6.92 | 5.24 |  |  | 
CC[C@H](Nc1nc(N)nc(C)c1C#N)c1nc2cccc(Cl)c2c(=O)n1N1CCN(Cc2ccc(C(F)(F)F)cc2)CC1 [Compound 89, (S)-2-amino-4-((1-(5-chloro-4-oxo-3-(4-(4-(trifluoromethyl)benzyl)piperazin-1-yl)-3,4-dihydroquinazolin-2-yl)propyl)amino)-6-methylpyrimidine-5-carbonitrile] | 7.30 | 5.35 | < 5.00 |  |  | 
C[C@H](Nc1nc(N)nc(N)c1C#N)c1nc2cccc(Cl)c2c(=O)n1N1CCN(Cc2ccccc2)CC1 [Compound 3, (S)-2,4-diamino-6-((1-(3-(4-benzylpiperazin-1-yl)-5-chloro-4-oxo-3,4-dihydroquinazolin-2-yl)ethyl)amino)pyrimidine-5-carbonitrile] | 7.92 | 8.10 | 6.24 |  |  | 
CC[C@H](Nc1nc(N)nc(C)c1C#N)c1nc2cccc(Cl)c2c(=O)n1N1CCN(Cc2ccc(F)cc2)CC1 [Compound 90, (S)-2-amino-4-((1-(5-chloro-3-(4-(4-fluorobenzyl)piperazin-1-yl)-4-oxo-3,4-dihydroquinazolin-2-yl)propyl)amino)-6-methylpyrimidine-5-carbonitrile] | 7.64 | 7.28 | 5.70 |  |  | 
C[C@H](Nc1ncnc(N)c1C#N)c1nc2cccc(Cl)c2c(=O)n1C1CCN(C)CC1 [Compound 6, (S)-4-amino-6-((1-(5-chloro-3-(1-methylpiperidin-4-yl)-4-oxo-3,4-dihydroquinazolin-2-yl)ethyl)amino)pyrimidine-5-carbonitrile] | 7.17 | 6.34 | < 5.00 |  |  | 
Cc1nc(N)nc(N[C@@H](C)c2nc3cccc(Cl)c3c(=O)n2C2CCN(CC(F)(F)F)CC2)c1C#N [Compound 106, (S)-2-amino-4-((1-(5-chloro-4-oxo-3-(1-(2,2,2-trifluoroethyl)piperidin-4-yl)-3,4-dihydroquinazolin-2-yl)ethyl)amino)-6-methylpyrimidine-5-carbonitrile] | 7.96 | 6.59 | 6.15 |  |  | 
CC[C@H](Nc1nc(N)nc(N)c1C#N)c1nc2cccc(Cl)c2c(=O)n1N1CCN(Cc2ccc(F)cc2)CC1 [Compound 91, (S)-2,4-diamino-6-((1-(5-chloro-3-(4-(4-fluorobenzyl)piperazin-1-yl)-4-oxo-3,4-dihydroquinazolin-2-yl)propyl)amino)pyrimidine-5-carbonitrile] | 7.66 | 7.23 | 6.03 |  |  | 
C[C@H](Nc1ncnc2cccnc12)c1nc2cccc(Cl)c2c(=O)n1C1CCCNCC1 (stereo partly drawn) [Compound 81, 3-(azepan-4-yl)-5-chloro-2-((S)-1-(pyrido[3,2-d]pyrimidin-4-ylamino)ethyl)quinazolin-4(3H)-one] | 7.46 | 6.28 | < 5.00 |  |  | 
C[C@H](Nc1ncnc2ccc(Cl)nc12)c1nc2c(Cl)ccc(Cl)c2c(=O)n1N1CCNCC1 [Compound 52, (S)-5,8-dichloro-2-(1-((6-chloropyrido[3,2-d]pyrimidin-4-yl)amino)ethyl)-3-(piperazinl-yl)quinazolin-4(3H)-one] |  |  |  | 8.52 | 8.10 | 5.51
Cc1nc(N)nc(N[C@@H](C)c2nc3c(F)ccc(Cl)c3c(=O)n2N2CCNCC2)c1C#N [Compound 21, (S)-2-amino-4-((1-(5-chloro-8-fluoro-4-oxo-3-(piperazin-1-yl)-3,4-dihydroquinazolin-2-yl)ethyl)amino)-6-methylpyrimidine-5-carbonitrile] | 9.15 | 8.70 | 6.05 |  |  | 
CC[C@H](Nc1nc(N)nc(C)c1C#N)c1nc2cccc(Cl)c2c(=O)n1N1CCNCC1 [Compound 44, (S)-2-amino-4-((1-(5-chloro-4-oxo-3-(piperazin-1-yl)-3,4-dihydroquinazolin-2-yl)propyl)amino)-6-methylpyrimidine-5-carbonitrile] | 9.00 | 8.70 | 5.74 |  |  | 
C[C@H](Nc1ncnc(N)c1C#N)c1nc2cccc(Cl)c2c(=O)n1C1CCCNC1 (stereo partly drawn) [Compound 83, 4-amino-6-(((1S)-1-(5-chloro-4-oxo-3-(piperidin-3-yl)-3,4-dihydroquinazolin-2-yl)ethyl)amino)pyrimidine-5-carbonitrile] | 8.10 | 6.57 | < 5.00 |  |  | 

Next, values leading:

pIC50 (PI3Kδ; [1]) | pIC50 (PI3Kβ; [2]) | pIC50 (PI3Kγ; [3]) | pIC50 (PI3Kδ) | pIC50 (PI3Kβ) | pIC50 (PI3Kγ) | SMILES
8.70 | 8.52 | 5.49 |  |  |  | C[C@H](Nc1ncnc2ccc(Cl)nc12)c1nc2cccc(Cl)c2c(=O)n1N1CCNCC1 [Compound 71, (S)-5-chloro-2-(1-((6-chloropyrido[3,2-d]pyrimidin-4-yl)amino)ethyl)-3-(piperazin-1-yl)quinazolin-4(3H)-one]
7.66 | 6.32 | < 5.00 |  |  |  | C[C@H](Nc1ncnn2ccnc12)c1nc2cccc(Cl)c2c(=O)n1C1CCCNCC1 (stereo partly drawn) [Compound 82, 3-(azepan-4-yl)-5-chloro-2-((S)-1-(imidazo[2,1-f][1,2,4]triazin-4-ylamino)ethyl)quinazolin-4(3H)-one]
8.10 | 7.35 | < 5.00 |  |  |  | CC[C@H](Nc1ncnn2ccnc12)c1nc2cccc(Cl)c2c(=O)n1N1CCNCC1 [Compound 42, (S)-5-chloro-2-(1-(imidazo[2,1-f][1,2,4]triazin-4-ylamino)propyl)-3-(piperazin-1-yl)quinazolin-4(3H)-one]
8.30 | 7.32 | < 5.00 |  |  |  | O=c1c2c(Cl)ccc(F)c2nc([C@@H](Nc2ncnn3ccnc23)C2CC2)n1N1CCNCC1 [Compound 47, (S)-5-chloro-2-(cyclopropyl(imidazo[2,1-f][1,2,4]triazin-4-ylamino)methyl)-8-fluoro-3-(piperazin-1-yl)quinazolin-4(3H)-one]
8.10 | 7.38 | < 5.00 |  |  |  | C[C@H](Nc1ncnn2ccnc12)c1nc2cccc(Cl)c2c(=O)n1N1CCNCC1 [Compound 65, (S)-5-chloro-2-(1-(imidazo[2,1-f][1,2,4]triazin-4-ylamino)ethyl)-3-(piperazin-1-yl)quinazolin-4(3H)-one]
7.25 | 8.22 | 5.24 |  |  |  | C[C@H](NC(=O)c1c(N)nn2cccnc12)c1nc2cccc(Cl)c2c(=O)n1N1CCNCC1 [Compound 36, (S)-2-amino-N-(1-(5-chloro-4-oxo-3-(piperazin-1-yl)-3,4-dihydroquinazolin-2-yl)ethyl)pyrazolo[1,5-a]pyrimidine-3-carboxamide]
8.40 | 7.60 | < 5.00 |  |  |  | CC[C@H](Nc1ncnc2scnc12)c1nc2cccc(Cl)c2c(=O)n1N1CCNCC1 [Compound 80, (S)-5-chloro-3-(piperazin-1-yl)-2-(1-(thiazolo[5,4-d]pyrimidin-7-ylamino)propyl)quinazolin-4(3H)-one]
7.12 | 6.05 | < 5.00 |  |  |  | O=c1c2c(Cl)cccc2nc([C@@H]2CCCN2c2ncnn3ccnc23)n1N1CCNCC1 [Compound 133, (S)-5-chloro-2-(1-(imidazo[2,1-f][1,2,4]triazin-4-yl)pyrrolidin-2-yl)-3-(piperazin-1-yl)quinazolin-4(3H)-one]
7.49 | 6.24 | < 5.00 |  |  |  | CC(C)C[C@H](Nc1ncnc(N)c1C#N)c1nc2cccc(Cl)c2c(=O)n1N1CCNCC1 [Compound 74, (S)-4-amino-6-((1-(5-chloro-4-oxo-3-(piperazin-1-yl)-3,4-dihydroquinazolin-2-yl)-3-methylbutyl)amino)pyrimidine-5-carbonitrile]
